# From ChEMBL document CHEMBL4765237, “Structural optimization and structure-activity relationship studies of N-phenyl-7,8-dihydro-6H-pyrimido[5,4-b][1,4]oxazin-4-amine derivatives as a new class of inhibitors of RET and its drug resistance mutants” (Eur J Med Chem, 2018)
# pIC50: −log10 of the molar value. Calls of active or inactive are those of the source. No cut-off for these calls is given here.
# Columns and labels:
# BaF3 = format: functional; details: Mus musculus, BaF3, 72 h; time 3 day
# NCI-H1975 = experiment: Growth inhibition of human NCI-H1975 cells incubated for 3 days by MTT assay; format: functional; details: NCI-H1975, 72 h, time 3 day
# [1] = target: Proto-oncogene tyrosine-protein kinase receptor Ret (Homo sapiens, UniProt P07949, V804M)
# HeLa = experiment: Growth inhibition of human HeLa cells incubated for 3 days by MTT assay; format: functional; details: 72 h, time 3 day
# Ephrin type-A receptor 3 = Ephrin type-A receptor 3 (Homo sapiens, UniProt P29320); experiment: Inhibition of recombinant human EphA3 (578 to end residues) using poly(Glu, Tyr) 4:1 as substrate incubated for 40 mins in presence of [gamma-33ATP] by scintillation counting based radiometry assay
# [2] = target: Tyrosine-protein kinase receptor UFO (Homo sapiens, UniProt P30530); experiment: Inhibition of recombinant human Axl (473 to end residues) using KKSRGDYMTMQIG as substrate incubated for 40 mins in presence of [gamma-33ATP] by scintillation counting based radiometry assay
# [3] = target: Mitogen-activated protein kinase kinase kinase kinase 5 (Homo sapiens, UniProt Q9Y4K4); experiment: Inhibition of recombinant human MAP4K5 using myelin basic protein as substrate incubated for 40 mins in presence of [gamma-33ATP by scintillation counting based radiometry assay
# [4] = target: Tyrosine-protein kinase ITK/TSK (Homo sapiens, UniProt Q08881); experiment: Inhibition of human ITK (352 to 617 residues) using myelin basic protein as substrate after 40 mins by [gamma-33ATP] radiometric assay
# [5] = Tmax in Sprague-Dawley rat at 10 mg/kg, po measured upto 24 hrs by LC-MS/MS analysis; format: ADME, organism-based; details: in vivo
# [6] = target: Vascular endothelial growth factor receptor 1 (Homo sapiens, UniProt P17948)
# [7] = Growth inhibition of human H4 cells incubated for 3 days by MTT assay; format: functional; details: H4, 72 h, time 3 day
# Mus musculus = organism: Mus musculus; details: NOD-SCID, dose 30.0 mg/kg, time 18.0 day
# [8] = target: Platelet-derived growth factor receptor alpha (Homo sapiens, UniProt P16234); experiment: Inhibition of human PDGFRalpha (550 to end residues) using poly(Glu, Tyr) 4:1 as substrate measured after 40 mins in presence of [gamma33P]ATP by scintillation counting based radiometry assay
# [9] = Growth inhibition of human C643 cells incubated for 3 days by MTT assay; format: functional; details: C643, 72 h, time 3 day
# [10] = Growth inhibition of mouse L929 cells incubated for 3 days by MTT assay; format: cell-based; details: time 3 day
# [11] = target: Serine/threonine-protein kinase WNK3 (Homo sapiens, UniProt Q9BYP7); experiment: Inhibition of recombinant human WNK3 (1 to 434 residues) using myelin basic protein as substrate incubated for 40 mins in presence of [gamma33P]ATP by scintillation counting based radiometry assay
# [12] = target: Serine/threonine-protein kinase B-raf (Homo sapiens, UniProt P15056); experiment: Inhibition of recombinant full length human B-Raf (416 to end residues) using myelin basic protein substrate incubated for 40 mins in presence of [gamma-33ATP] by scintillation counting based radiometry assay
# [13] = target: Platelet-derived growth factor receptor beta (Homo sapiens, UniProt P09619); experiment: Inhibition of human PDGFRbeta (557 to end residues) using poly(Glu, Tyr) 4:1 as substrate measured after 40 mins in presence of [gamma33P]ATP by scintillation counting based radiometry assay
# [14] = target: Interleukin-1 receptor-associated kinase 1 (Homo sapiens, UniProt P51617); experiment: Inhibition of human IRAK1 (194 to end residues) using myelin basic protein as substrate after 40 mins by [gamma-33ATP] radiometric assay
# Ephrin type-A receptor 2 = Ephrin type-A receptor 2 (Homo sapiens, UniProt P29317); experiment: Inhibition of recombinant human EphA2 (596 to 900 residues) using poly(Glu, Tyr) 4:1 as substrate incubated for 40 mins in presence of [gamma-33ATP] by scintillation counting based radiometry assay
# [15] = target: Macrophage-stimulating protein receptor (Homo sapiens, UniProt Q04912); experiment: Inhibition of recombinant human Ron (983 to end residues) using GGMEDIYFEFMGGKKK as substrate incubated for 40 mins in presence of [gamma33P]ATP by scintillation counting based radiometry assay
# [16] = target: High affinity nerve growth factor receptor (Homo sapiens, UniProt P04629)
# Ramos = experiment: Growth inhibition of human Ramos cells incubated for 3 days by MTT assay; format: functional; details: 72 h, time 3 day
# [17] = target: Proto-oncogene tyrosine-protein kinase receptor Ret (Homo sapiens, UniProt P07949)
# BGC-823 = experiment: Growth inhibition of human BGC-823 cells incubated for 3 days by MTT assay; format: functional; details: BGC-823, 72 h, time 3 day
# [18] = Half life in Sprague-Dawley rat at 10 mg/kg, po measured upto 24 hrs by LC-MS/MS analysis; format: ADME, organism-based; details: in vivo
# CDK4/Cyclin D3 = CDK4/Cyclin D3 (Homo sapiens, UniProt P11802); experiment: Inhibition of recombinant full length human CDK4/CyclinD3 using Rb fragment as substrate incubated for 40 mins in presence of [gamma-33ATP] by scintillation counting based radiometry assay; format: protein-complex assay
# [19] = target: BDNF/NT-3 growth factors receptor (Homo sapiens, UniProt Q16620); experiment: Inhibition of recombinant human TRKB (455 to end residues) using poly(Glu, Tyr) 4:1 as substrate incubated for 40 mins in presence of [gamma33P]ATP by scintillation counting based radiometry assay
# [20] = Volume of distribution at steady state in Sprague-Dawley rat at 10 mg/kg, po measured upto 24 hrs by LC-MS/MS analysis; format: ADME, organism-based; details: in vivo
# [21] = target: Tyrosine-protein kinase Lyn (Homo sapiens, UniProt P07948); experiment: Inhibition of recombinant human Lyn using poly(Glu, Tyr) 4:1 as substrate after 40 mins in presence of [gamma-33ATP] by scintillation counting based radiometry assay
# [22] = Cmax in Sprague-Dawley rat at 10 mg/kg, po measured upto 24 hrs by LC-MS/MS analysis; format: ADME, organism-based; design: route oral, dose 10 mg/kg, time <=24; details: in vivo
# [23] = Growth inhibition of human HTH-83 cells incubated for 3 days by MTT assay; format: functional; details: HTh83, 72 h, time 3 day
# [24] = target: Tyrosine-protein kinase Mer (Homo sapiens, UniProt Q12866); experiment: Inhibition of recombinant human MER (557 to 882 residues) using KKLNRTLSFAEPG as substrate incubated for 40 mins in presence of [gamma-33ATP by scintillation counting based radiometry assay
# Ephrin type-B receptor 2 = Ephrin type-B receptor 2 (Homo sapiens, UniProt P29323); experiment: Inhibition of recombinant human EphB2 (560 to end residues) using poly(Glu, Tyr) 4:1 as substrate incubated for 40 mins in presence of [gamma-33ATP] by scintillation counting based radiometry assay
# Chain of Vascular endothelial growth factor receptor 1 (P17948 whole entry): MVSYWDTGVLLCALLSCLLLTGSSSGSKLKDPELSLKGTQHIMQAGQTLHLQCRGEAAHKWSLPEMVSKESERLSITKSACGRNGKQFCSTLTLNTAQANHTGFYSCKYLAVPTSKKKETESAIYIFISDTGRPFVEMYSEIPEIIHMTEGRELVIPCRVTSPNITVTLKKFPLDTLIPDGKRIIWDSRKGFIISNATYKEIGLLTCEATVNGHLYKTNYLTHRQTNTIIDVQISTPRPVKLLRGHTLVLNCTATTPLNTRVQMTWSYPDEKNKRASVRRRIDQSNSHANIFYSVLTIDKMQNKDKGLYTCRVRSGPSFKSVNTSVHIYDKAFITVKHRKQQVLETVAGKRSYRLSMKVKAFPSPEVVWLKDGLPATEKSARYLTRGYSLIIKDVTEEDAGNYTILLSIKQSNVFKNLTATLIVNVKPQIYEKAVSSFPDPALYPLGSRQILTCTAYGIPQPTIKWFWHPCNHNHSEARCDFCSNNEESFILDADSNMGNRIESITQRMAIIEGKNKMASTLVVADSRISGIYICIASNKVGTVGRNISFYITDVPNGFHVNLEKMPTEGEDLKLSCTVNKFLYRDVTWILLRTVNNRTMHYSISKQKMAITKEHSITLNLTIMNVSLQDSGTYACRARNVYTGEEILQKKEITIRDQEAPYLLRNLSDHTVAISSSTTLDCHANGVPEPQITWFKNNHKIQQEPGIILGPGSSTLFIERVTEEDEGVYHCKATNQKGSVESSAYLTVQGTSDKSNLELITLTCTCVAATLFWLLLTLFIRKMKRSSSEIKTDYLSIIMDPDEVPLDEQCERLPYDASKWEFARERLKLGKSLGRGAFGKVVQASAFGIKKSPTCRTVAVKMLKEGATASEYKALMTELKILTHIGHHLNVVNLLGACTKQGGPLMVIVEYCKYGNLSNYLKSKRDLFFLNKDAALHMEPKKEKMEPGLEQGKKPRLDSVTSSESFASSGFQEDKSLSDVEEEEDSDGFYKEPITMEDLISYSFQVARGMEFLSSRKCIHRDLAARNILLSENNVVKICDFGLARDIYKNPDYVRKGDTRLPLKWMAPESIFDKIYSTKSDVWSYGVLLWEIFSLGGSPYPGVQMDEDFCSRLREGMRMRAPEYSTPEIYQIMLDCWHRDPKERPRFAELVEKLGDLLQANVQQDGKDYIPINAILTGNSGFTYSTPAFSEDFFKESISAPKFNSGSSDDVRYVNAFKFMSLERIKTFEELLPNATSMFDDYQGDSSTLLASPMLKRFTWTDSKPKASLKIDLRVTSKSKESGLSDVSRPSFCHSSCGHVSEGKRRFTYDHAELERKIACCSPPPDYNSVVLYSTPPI
# Chain of Platelet-derived growth factor receptor beta (P09619 whole entry): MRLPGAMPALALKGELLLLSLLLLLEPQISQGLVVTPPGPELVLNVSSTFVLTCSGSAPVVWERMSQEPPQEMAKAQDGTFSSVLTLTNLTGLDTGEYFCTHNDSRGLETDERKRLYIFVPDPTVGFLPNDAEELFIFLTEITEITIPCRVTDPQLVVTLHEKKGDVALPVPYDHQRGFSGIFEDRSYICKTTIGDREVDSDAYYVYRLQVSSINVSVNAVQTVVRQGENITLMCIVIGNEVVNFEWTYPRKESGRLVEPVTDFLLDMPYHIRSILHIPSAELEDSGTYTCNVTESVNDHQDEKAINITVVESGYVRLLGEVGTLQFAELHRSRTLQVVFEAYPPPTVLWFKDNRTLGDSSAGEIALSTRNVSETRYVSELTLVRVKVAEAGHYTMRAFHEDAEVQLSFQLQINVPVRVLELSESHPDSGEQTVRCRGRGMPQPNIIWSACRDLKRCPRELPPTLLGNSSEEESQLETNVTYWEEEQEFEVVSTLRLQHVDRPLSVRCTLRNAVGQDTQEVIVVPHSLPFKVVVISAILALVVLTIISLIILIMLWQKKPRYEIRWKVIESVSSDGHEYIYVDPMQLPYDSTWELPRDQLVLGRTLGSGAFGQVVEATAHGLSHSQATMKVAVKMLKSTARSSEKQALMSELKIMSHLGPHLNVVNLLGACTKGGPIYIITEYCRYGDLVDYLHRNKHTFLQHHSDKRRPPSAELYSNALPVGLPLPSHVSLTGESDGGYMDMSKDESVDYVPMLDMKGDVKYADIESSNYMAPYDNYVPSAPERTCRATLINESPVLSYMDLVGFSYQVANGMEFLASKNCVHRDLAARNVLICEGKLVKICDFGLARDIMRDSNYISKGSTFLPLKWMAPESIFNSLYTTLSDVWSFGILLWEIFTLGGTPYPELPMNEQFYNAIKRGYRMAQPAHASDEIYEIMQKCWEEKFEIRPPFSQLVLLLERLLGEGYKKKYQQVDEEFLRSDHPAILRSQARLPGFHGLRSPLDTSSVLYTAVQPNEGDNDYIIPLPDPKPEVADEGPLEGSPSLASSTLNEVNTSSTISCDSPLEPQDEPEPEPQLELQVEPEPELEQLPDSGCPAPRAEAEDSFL
# Chain of Ephrin type-A receptor 2 (P29317 whole entry, the tested form may be a part): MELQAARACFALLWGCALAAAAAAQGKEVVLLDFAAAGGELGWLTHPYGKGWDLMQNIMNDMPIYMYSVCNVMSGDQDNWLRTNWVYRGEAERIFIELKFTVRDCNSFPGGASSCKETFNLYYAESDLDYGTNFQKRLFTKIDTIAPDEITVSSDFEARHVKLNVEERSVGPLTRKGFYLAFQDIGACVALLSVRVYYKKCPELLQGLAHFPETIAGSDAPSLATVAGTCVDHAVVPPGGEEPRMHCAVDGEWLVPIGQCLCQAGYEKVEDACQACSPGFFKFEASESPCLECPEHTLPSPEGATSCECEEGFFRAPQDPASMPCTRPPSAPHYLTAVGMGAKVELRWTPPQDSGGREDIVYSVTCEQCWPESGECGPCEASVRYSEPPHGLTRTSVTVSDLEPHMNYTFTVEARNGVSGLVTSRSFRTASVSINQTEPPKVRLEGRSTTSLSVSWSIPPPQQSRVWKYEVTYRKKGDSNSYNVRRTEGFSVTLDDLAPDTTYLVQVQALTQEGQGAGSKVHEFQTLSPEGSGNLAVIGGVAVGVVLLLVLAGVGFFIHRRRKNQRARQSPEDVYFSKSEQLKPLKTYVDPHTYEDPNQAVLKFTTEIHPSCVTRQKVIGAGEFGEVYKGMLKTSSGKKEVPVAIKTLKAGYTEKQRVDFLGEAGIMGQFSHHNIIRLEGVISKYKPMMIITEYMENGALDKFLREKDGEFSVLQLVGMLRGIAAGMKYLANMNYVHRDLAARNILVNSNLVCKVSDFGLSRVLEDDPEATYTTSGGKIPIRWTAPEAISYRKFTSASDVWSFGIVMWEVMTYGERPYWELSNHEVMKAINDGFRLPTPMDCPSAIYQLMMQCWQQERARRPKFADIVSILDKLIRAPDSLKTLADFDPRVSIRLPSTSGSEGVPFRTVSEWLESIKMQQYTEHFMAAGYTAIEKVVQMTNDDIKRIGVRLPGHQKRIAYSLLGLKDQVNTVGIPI
# Chain of Serine/threonine-protein kinase B-raf (P15056 whole entry): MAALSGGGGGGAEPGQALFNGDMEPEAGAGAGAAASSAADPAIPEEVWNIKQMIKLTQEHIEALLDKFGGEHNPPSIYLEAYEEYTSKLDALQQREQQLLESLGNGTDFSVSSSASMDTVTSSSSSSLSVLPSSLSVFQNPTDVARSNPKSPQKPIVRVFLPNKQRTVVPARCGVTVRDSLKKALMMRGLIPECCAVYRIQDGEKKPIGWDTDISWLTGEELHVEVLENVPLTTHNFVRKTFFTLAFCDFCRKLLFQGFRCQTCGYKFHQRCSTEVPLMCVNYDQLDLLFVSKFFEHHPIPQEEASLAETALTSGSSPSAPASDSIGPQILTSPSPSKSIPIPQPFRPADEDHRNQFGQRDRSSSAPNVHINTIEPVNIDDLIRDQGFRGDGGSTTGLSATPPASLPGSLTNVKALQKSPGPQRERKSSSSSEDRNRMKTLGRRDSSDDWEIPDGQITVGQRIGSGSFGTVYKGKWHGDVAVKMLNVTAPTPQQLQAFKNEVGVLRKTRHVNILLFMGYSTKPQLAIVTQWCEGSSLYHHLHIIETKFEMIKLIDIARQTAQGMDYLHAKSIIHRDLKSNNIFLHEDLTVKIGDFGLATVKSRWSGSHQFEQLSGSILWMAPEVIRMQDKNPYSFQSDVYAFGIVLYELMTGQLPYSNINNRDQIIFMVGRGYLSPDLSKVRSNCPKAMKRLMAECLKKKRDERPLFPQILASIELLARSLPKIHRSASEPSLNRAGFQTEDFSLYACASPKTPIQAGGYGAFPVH
# Chain of Tyrosine-protein kinase ITK/TSK (Q08881 whole entry, the tested form may be a part): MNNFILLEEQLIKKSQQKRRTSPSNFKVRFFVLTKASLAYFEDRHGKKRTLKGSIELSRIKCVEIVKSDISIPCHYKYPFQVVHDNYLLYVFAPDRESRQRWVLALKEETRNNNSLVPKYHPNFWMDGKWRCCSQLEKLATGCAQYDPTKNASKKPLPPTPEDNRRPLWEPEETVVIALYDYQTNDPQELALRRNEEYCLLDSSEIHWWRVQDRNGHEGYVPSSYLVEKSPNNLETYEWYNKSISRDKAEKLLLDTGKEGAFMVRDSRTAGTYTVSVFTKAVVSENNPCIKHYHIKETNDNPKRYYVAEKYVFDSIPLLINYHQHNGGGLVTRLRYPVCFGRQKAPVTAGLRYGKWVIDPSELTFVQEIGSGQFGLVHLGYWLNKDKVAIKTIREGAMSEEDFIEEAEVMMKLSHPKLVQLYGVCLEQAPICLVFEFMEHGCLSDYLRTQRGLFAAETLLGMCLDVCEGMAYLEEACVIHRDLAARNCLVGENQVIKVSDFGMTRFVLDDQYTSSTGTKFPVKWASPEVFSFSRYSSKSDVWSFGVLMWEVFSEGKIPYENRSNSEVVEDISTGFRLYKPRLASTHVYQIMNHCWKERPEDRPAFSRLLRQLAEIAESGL
smiles,measurement,setting,value
CC(C)(C)c1cc(NC(=O)Nc2ccc(Nc3ncnc4c3OCCCN4)cc2)no1,GI50,BaF3,1130 nM
same,GI50,NCI-H1975,> 10000 nM
same,pIC50,[1],7.82
same,GI50,HeLa,> 10000 nM
same,pIC50,Ephrin type-A receptor 3,6.26
same,pIC50,[2],6.15
same,pIC50,[3],6.15
same,pIC50,[4],6.47
same,Tmax,[5],15 min
same,pIC50,[6],8.10
same,GI50,[7],> 10000 nM
same,inhibition,Mus musculus,Active
same,pIC50,[8],6.58
same,GI50,[9],> 10000 nM
same,GI50 at 72 h,[10],> 10000 nM
same,pIC50,[11],6.31
same,pIC50,[12],6.02
same,pIC50,[13],6.16
same,pIC50,[14],6.75
same,pIC50,Ephrin type-A receptor 2,6.98
same,pIC50,[15],5.90
same,pIC50,[16],7.15
same,GI50,Ramos,> 10000 nM
same,pIC50,[17],8.00
same,GI50,BGC-823,8470 nM
same,half-life,[18],92.3 min
same,pIC50,CDK4/Cyclin D3,5.95
same,pIC50,[19],7.17
same,Vdss,[20],0.05 L/kg
same,pIC50,[21],6.91
same,Cmax,[22],263 µg/mL
same,GI50,[23],> 10000 nM
same,pIC50,[24],5.83
same,pIC50,Ephrin type-B receptor 2,5.96
